Results on 32 compounds are retold here after patent publication US20240360082A1, “SUBSTITUTED PYRIDONE COMPOUNDS USEFUL TO TREAT ORTH[…]” (priority 2021, published 2024).

One may read the IC50 as the concentration that gives 50% inhibition.

SMILES strings stand for the structures.

Chain of influenza A virus minigenome (PB2, PB1, PA, NP proteins) (P04665 whole entry): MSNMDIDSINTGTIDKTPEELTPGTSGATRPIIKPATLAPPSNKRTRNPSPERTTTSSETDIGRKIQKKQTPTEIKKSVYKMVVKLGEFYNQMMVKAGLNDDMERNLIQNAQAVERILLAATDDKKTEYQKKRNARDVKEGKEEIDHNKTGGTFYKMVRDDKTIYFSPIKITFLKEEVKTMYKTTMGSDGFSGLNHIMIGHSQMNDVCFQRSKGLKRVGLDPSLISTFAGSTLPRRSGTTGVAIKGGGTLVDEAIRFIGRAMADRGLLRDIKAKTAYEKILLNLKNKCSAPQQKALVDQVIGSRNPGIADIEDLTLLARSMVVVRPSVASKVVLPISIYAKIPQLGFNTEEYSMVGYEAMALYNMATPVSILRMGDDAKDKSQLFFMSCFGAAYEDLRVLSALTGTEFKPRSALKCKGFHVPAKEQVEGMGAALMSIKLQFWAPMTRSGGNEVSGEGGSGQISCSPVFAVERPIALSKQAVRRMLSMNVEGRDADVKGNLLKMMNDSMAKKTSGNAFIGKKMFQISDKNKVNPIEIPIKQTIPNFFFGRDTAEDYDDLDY

This test concerns the target influenza A virus minigenome (PB2, PB1, PA, NP proteins) (UniProt P04665). It is filed as cell-based. Conditions: read-out: RNP_ Hubei B IC50.
As for `NC(=O)c1cc(-c2ccc(OCC3CCOC3)cc2)c(C(F)(F)F)[nH]c1=O` (centres unmarked) [Example 231, 2-oxo-5-(4-((tetrahydrofuran-3-yl)methoxy)phenyl)-6-(trifluoromethyl)-1,2-dihydropyridine-3-carboxamide], the half-maximal inhibitory concentration (IC50) fell in the range of 25 to 50 µM.
The value for `NC(=O)c1cc(-c2ccc(OCC3CCCO3)cc2)c(C(F)(F)F)[nH]c1=O` (centres unmarked) [Example 232, 2-oxo-5-(4-((tetrahydrofuran-2-yl)methoxy)phenyl)-6-(trifluoromethyl)-1,2-dihydropyridine-3-carboxamide] was 10 to 25 µM; that for `CN1CC(COc2ccc(-c3cc(C(N)=O)c(=O)[nH]c3C(F)(F)F)cc2)OC1=O` (centres unmarked) [Example 233, 5-(4-((3-methyl-2-oxooxazolidin-5-yl)methoxy)phenyl)-2-oxo-6-(trifluoromethyl)-1,2-dihydropyridine-3-carboxamide] was 25 to 50 µM.
Regarding `CCN1CC(COc2ccc(-c3cc(C(N)=O)c(=O)[nH]c3C(F)(F)F)cc2)OC1=O` (centres unmarked) [Example 234, 5-(4-((3-ethyl-2-oxooxazolidin-5-yl)methoxy)phenyl)-2-oxo-6-(trifluoromethyl)-1,2-dihydropyridine-3-carboxamide], the half-maximal inhibitory concentration (IC50) lay in the range of 25 to 50 µM.
The value for `CN1C(=O)OCC1COc1ccc(-c2cc(C(N)=O)c(=O)[nH]c2C(F)(F)F)cc1` (centres unmarked) [Example 235, 5-(4-((3-methyl-2-oxooxazolidin-4-yl)methoxy)phenyl)-2-oxo-6-(trifluoromethyl)-1,2-dihydropyridine-3-carboxamide] was 25 to 50 µM; that for `NC(=O)c1cc(-c2ccc(OCC3CCCCO3)cc2)c(C(F)(F)F)[nH]c1=O` (centres unmarked) [Example 236, 2-oxo-5-(4-((tetrahydro-2H-pyran-2-yl)methoxy)phenyl)-6-(trifluoromethyl)-1,2-dihydropyridine-3-carboxamide] was 5 to 10 µM.
The figure for `NC(=O)c1cc(-c2ccc(OCC3COCCO3)c(F)c2)c(C(F)(F)F)[nH]c1=O` (centres unmarked) [Example 239, 5-(4-((1,4-dioxan-2-yl)methoxy)-3-fluorophenyl)-2-oxo-6-(trifluoromethyl)-1,2-dihydropyridine-3-carboxamide] is 10 to 25 µM.
Take `NC(=O)c1cc(-c2ccc(OCC3COCCO3)c(C3CC3)c2)c(C(F)(F)F)[nH]c1=O` (centres unmarked) [Example 243, 5-(4-((1,4-dioxan-2-yl)methoxy)-3-cyclopropylphenyl)-2-oxo-6-(trifluoromethyl)-1,2-dihydropyridine-3-carboxamide]: the IC50 lay in the range of 1 to 5 µM.
The figure for `CN1CCOCC1COc1ccc(-c2cc(C(N)=O)c(=O)[nH]c2C(F)(F)F)cc1` (centres unmarked) [Example 247, 5-(4-((4-methylmorpholin-3-yl)methoxy)phenyl)-2-oxo-6-(trifluoromethyl)-1,2-dihydropyridine-3-carboxamide] is 25 to 50 µM; for `NC(=O)c1cc(-c2ccc(OCC3COCCN3C3CC3)cc2)c(C(F)(F)F)[nH]c1=O` (centres unmarked) [Example 248, 5-(4-((4-cyclopropylmorpholin-3-yl)methoxy)phenyl)-2-oxo-6-(trifluoromethyl)-1,2-dihydropyridine-3-carboxamide] it is 5 to 10 µM; for `CCN1CCOCC1COc1ccc(-c2cc(C(N)=O)c(=O)[nH]c2C(F)(F)F)cc1` (centres unmarked) [Example 249, 5-(4-((4-ethylmorpholin-3-yl)methoxy)phenyl)-2-oxo-6-(trifluoromethyl)-1,2-dihydropyridine-3-carboxamide] it is 5 to 10 µM.
The figure for `NC(=O)c1cc(-c2ccc(OCC3COCC(=O)N3)cc2)c(C(F)(F)F)[nH]c1=O` (centres unmarked) [Example 250, 2-oxo-5-(4-((5-oxomorpholin-3-yl)methoxy)phenyl)-6-(trifluoromethyl)-1,2-dihydropyridine-3-carboxamide] is 25 to 50 µM; for `COCCOc1ccc(-c2cc(C(N)=O)c(=O)[nH]c2C(F)(F)F)cc1` [Example 254, 5-(4-(2-methoxyethoxy)phenyl)-2-oxo-6-(trifluoromethyl)-1,2-dihydropyridine-3-carboxamide] it is 25 to 50 µM.
The figure for `NC(=O)c1cc(-c2ccc(OCCN3CCOC3=O)cc2)c(C(F)(F)F)[nH]c1=O` [Example 257, 2-oxo-5-(4-(2-(2-oxooxazolidin-3-yl)ethoxy)phenyl)-6-(trifluoromethyl)-1,2-dihydropyridine-3-carboxamide] is 25 to 50 µM.
For `CCc1cc(COc2ccc(-c3cc(C(N)=O)c(=O)[nH]c3C(F)(F)F)cc2)n(C)n1` [Example 262, 5-(4-((3-ethyl-1-methyl-1H-pyrazol-5-yl)methoxy)phenyl)-2-oxo-6-(trifluoromethyl)-1,2-dihydropyridine-3-carboxamide], the IC50 was 25 to 50 µM.
The value for `Cn1nc(C2CC2)cc1COc1ccc(-c2cc(C(N)=O)c(=O)[nH]c2C(F)(F)F)cc1` [Example 263, 5-(4-((3-cyclopropyl-1-methyl-1H-pyrazol-5-yl)methoxy)phenyl)-2-oxo-6-(trifluoromethyl)-1,2-dihydropyridine-3-carboxamide] was 25 to 50 µM.
For the compound `NC(=O)c1cc(-c2ccc(OCc3ccnn3CC3CC3)cc2)c(C(F)(F)F)[nH]c1=O` [Example 265, 5-(4-((1-(cyclopropylmethyl)-1H-pyrazol-5-yl)methoxy)phenyl)-2-oxo-6-(trifluoromethyl)-1,2-dihydropyridine-3-carboxamide], the IC50 fell in the range of 25 to 50 µM.
Consider `NC(=O)c1cc(-c2ccc(OCc3cocn3)cc2)c(C(F)(F)F)[nH]c1=O` [Example 266, 5-(4-(oxazol-4-ylmethoxy)phenyl)-2-oxo-6-(trifluoromethyl)-1,2-dihydropyridine-3-carboxamide], for which the IC50 fell in the range of 25 to 50 µM.
As for `NC(=O)c1cc(-c2ccc(OCc3cnco3)cc2)c(C(F)(F)F)[nH]c1=O` [Example 267, 5-(4-(oxazol-5-ylmethoxy)phenyl)-2-oxo-6-(trifluoromethyl)-1,2-dihydropyridine-3-carboxamide], the half-maximal inhibitory concentration (IC50) lay in the range of 25 to 50 µM.
Take `NC(=O)c1cc(-c2ccc(OCc3cc(C4CC4)on3)cc2)c(C(F)(F)F)[nH]c1=O` [Example 268, 5-(4-((5-cyclopropylisoxazol-3-yl)methoxy)phenyl)-2-oxo-6-(trifluoromethyl)-1,2-dihydropyridine-3-carboxamide]: the IC50 was 25 to 50 µM.
The value for `Cc1oncc1COc1ccc(-c2cc(C(N)=O)c(=O)[nH]c2C(F)(F)F)cc1` [Example 269, 5-(4-((5-methylisoxazol-4-yl)methoxy)phenyl)-2-oxo-6-(trifluoromethyl)-1,2-dihydropyridine-3-carboxamide] was 25 to 50 µM; that for `Cc1onc(-c2ccncc2)c1COc1ccc(-c2cc(C(N)=O)c(=O)[nH]c2C(F)(F)F)cc1` [Example 270, 5-(4-((5-methyl-3-(pyridin-4-yl)isoxazol-4-yl)methoxy)phenyl)-2-oxo-6-(trifluoromethyl)-1,2-dihydropyridine-3-carboxamide] was 25 to 50 µM.
The value for `Cc1ncc(COc2ccc(-c3cc(C(N)=O)c(=O)[nH]c3C(F)(F)F)cc2)s1` [Example 271, 5-(4-((2-methylthiazol-5-yl)methoxy)phenyl)-2-oxo-6-(trifluoromethyl)-1,2-dihydropyridine-3-carboxamide] was 25 to 50 µM.
The figure for `Cc1ncsc1COc1ccc(-c2cc(C(N)=O)c(=O)[nH]c2C(F)(F)F)cc1` [Example 272, 5-(4-((4-methylthiazol-5-yl)methoxy)phenyl)-2-oxo-6-(trifluoromethyl)-1,2-dihydropyridine-3-carboxamide] is 25 to 50 µM; for `Cc1nnsc1COc1ccc(-c2cc(C(N)=O)c(=O)[nH]c2C(F)(F)F)cc1` [Example 273, 5-(4-((4-methyl-1,2,3-thiadiazol-5-yl)methoxy)phenyl)-2-oxo-6-(trifluoromethyl)-1,2-dihydropyridine-3-carboxamide] it is 10 to 25 µM.
Take `Cc1cncc(COc2ccc(-c3cc(C(N)=O)c(=O)[nH]c3C(F)(F)F)cc2)n1` [Example 283, 5-(4-((6-methylpyrazin-2-yl)methoxy)phenyl)-2-oxo-6-(trifluoromethyl)-1,2-dihydropyridine-3-carboxamide]: the IC50 was in the range of 5 to 10 µM.
The value for `NC(=O)c1cc(-c2ccc(OCc3cnc4ccccn34)cc2)c(C(F)(F)F)[nH]c1=O` [Example 286, 5-(4-(imidazo[1,2-a]pyridin-3-ylmethoxy)phenyl)-2-oxo-6-(trifluoromethyl)-1,2-dihydropyridine-3-carboxamide] was 25 to 50 µM.
Take `CC1(C)CC[C@@H](COc2ccc(-c3cc(C(N)=O)c(=O)[nH]c3C(F)(F)F)cc2)O1` [Example 300, (S)-5-(4-((5,5-dimethyltetrahydrofuran-2-yl)methoxy)phenyl)-2-oxo-6-(trifluoromethyl)-1,2-dihydropyridine-3-carboxamide]: the IC50 was 10 to 25 µM.
The value for `CC(C)(C)OC(=O)N1CCC(COc2ccc(-c3cc(C(N)=O)c(=O)[nH]c3C(F)(F)F)cc2)C1` (centres unmarked) [Example 302, Tert-butyl 3-((4-(5-carbamoyl-6-oxo-2-(trifluoromethyl)-1,6-dihydropyridin-3-yl)phenoxy)methyl)pyrrolidine-1-carboxylate] was 25 to 50 µM; that for `CC1CN(C(=O)OC(C)(C)C)CC1COc1ccc(-c2cc(C(N)=O)c(=O)[nH]c2C(F)(F)F)cc1` (centres unmarked) [Example 303, Tert-butyl 3-((4-(5-carbamoyl-6-oxo-2-(trifluoromethyl)-1,6-dihydropyridin-3-yl)phenoxy)methyl)-4-methylpyrrolidine-1-carboxylate] was 10 to 25 µM; that for `CC(C)(C)OC(=O)N1C[C@H](F)C[C@H]1COc1ccc(-c2cc(C(N)=O)c(=O)[nH]c2C(F)(F)F)cc1` [Example 305, Tert-butyl (2S,4R)-2-((4-(5-carbamoyl-6-oxo-2-(trifluoromethyl)-1,6-dihydropyridin-3-yl)phenoxy)methyl)-4-fluoropyrrolidine-1-carboxylate] was 25 to 50 µM.
Consider `CC(C)(C)OC(=O)N1C[C@@H](F)C[C@H]1COc1ccc(-c2cc(C(N)=O)c(=O)[nH]c2C(F)(F)F)cc1` [Example 306, tert-butyl (2S,4S)-2-((4-(5-carbamoyl-6-oxo-2-(trifluoromethyl)-1,6-dihydropyridin-3-yl)phenoxy)methyl)-4-fluoropyrrolidine-1-carboxylate], for which the half-maximal inhibitory concentration (IC50) fell in the range of 5 to 10 µM.
